The record followed here is a melting point compilation (Tetko et al.).

For the data set the following is noted: a range is the spread between reports.

The structures appear in SMILES notation.

Consider `Clc1ccc(Br)c(Cl)c1`, for which the melting point lay in the range of 26 to 27 °C.

The molecule `CF` registered a melting point of -143 to -142 °C.

In turn, `OCc1ccccc1CO` returned a melting point of 62 to 64 °C.

Take `Oc1ccc2ccccc2c1-c1c(O)ccc2ccccc12`: the melting point lay within 216 to 217 °C.

`Nc1c(Br)cc([N+](=O)[O-])cc1[N+](=O)[O-]` registered a melting point of 152 to 154 °C.

`O=C1CSC(=S)N1` returned a melting point of 169 to 170 °C.

Regarding `O=C(Oc1ccccc1)c1ccccc1O`, the melting point was in the range of 42 to 43 °C.

With `c1ccc2cc3ccccc3cc2c1`, the melting point is 215 to 218 °C.

Molecule `COc1cc(C#N)ccc1O` returned a melting point of 86 to 87 °C.

On to `CC(N)=O`, for which the melting point fell in the range of 79 to 81 °C.

`CCCCCCCCCCCCCCCCCCO` registered a melting point of 58 to 61 °C.

`Nc1cnc2ccccc2c1`: the melting point lay in the range of 91.5 to 94 °C.

For the molecule `Cc1cccc(C)c1N`, the melting point lay within 8 to 12 °C.

Molecule `COc1ccc([N+](=O)[O-])c(OC)c1` gave a melting point of 74 to 76.5 °C.

Regarding `c1ccc(Cc2ccc(-c3ccccc3)cc2)cc1`, the melting point was 85 to 86 °C.

`O=C=Nc1ccc([N+](=O)[O-])cc1` returned a melting point of 57 to 58 °C.

For the molecule `c1ccc(NC2CCCCC2)cc1`, the melting point was 15 to 16 °C.

In the case of `Clc1cccc(Cl)c1Cl`, the melting point is 52.6 to 55 °C.

`CCn1cc(C(=O)O)c(=O)c2ccc(C)nc21` came in with a melting point of 229 to 230 °C.

For the molecule `CC(C)C(O)C(C)(C)C` (stereo not given), the melting point is -13 to -11 °C.

`Cc1cccnc1N` came in with a melting point of 31 to 33.5 °C.

On to `CC(C)C(=O)OC(=O)C(C)C`, for which the melting point is -56 to -53.5 °C.

Consider `N#Cc1c(F)cccc1F`, for which the melting point lay within 30 to 31 °C.

Regarding `CCCCCCCCCCCCCCCCCC(=O)O`, the melting point fell in the range of 68 to 71 °C.

Take `CCSCC`: the melting point is -104 °C.

On to `C1CN2CCN1CC2`, for which the melting point was 158 to 159 °C.

With `CC1CCC1`, the melting point was -162 °C.

The molecule `c1csc(-c2ccc(-c3cccs3)s2)c1` displayed a melting point of 92 to 93.5 °C.

`CC12CCC(=O)C=C1CCC1C2CCC2(C)C(C(=O)CO)CCC12` (stereo not given) displayed a melting point of 142 °C.

The molecule `CCC#CC(C)C` yielded a melting point of -117 °C.

In the case of `N#CCc1ccc(Cl)cc1`, the melting point fell in the range of 30 to 31 °C.

`Nc1cccc2ccc(O)cc12` returned a melting point of 206 to 208 °C.

Molecule `O=C(O)c1cccc(Cl)c1` had a melting point of 156 to 158 °C.

On to `CN(C)c1ccncc1`, for which the melting point is 111 to 112 °C.

In turn, `Cc1ccc2cc3c(ccc4ccccc43)c3c2c1CC3` yielded a melting point of 180 °C.

The molecule `CC(=O)/C=C/c1ccccc1` returned a melting point of 40 to 42 °C.

In the case of `CCCCCCCCCc1ccc(O)cc1`, the melting point lay in the range of 42 to 45 °C.

In turn, `C=C(C)c1ccccc1` showed a melting point of -23.2 to -23 °C.

As for `CS(=O)(=O)c1ccc(C(O)C(CO)NC(=O)C(Cl)Cl)cc1` (stereo not given), the melting point came to 165 °C.

`CCCOC(=O)c1ccc(O)cc1` registered a melting point of 96 to 97 °C.

As for `N#Cc1c(F)c(F)c(F)c(F)c1F`, the melting point lay within 2 to 2.4 °C.

`CC12CCC3C(CCC4(C)CC5(CCC34C)OCCO5)C1CCC2=O` (stereo not given) displayed a melting point of 158 to 159 °C.

In turn, `O=C(O)c1cc(-c2ccccc2)nc2ccccc12` returned a melting point of 214 to 215 °C.

In the case of `O=C(O)C(F)(F)C(F)(F)C(F)(F)C(F)(F)C(F)(F)C(F)(F)C(F)(F)F`, the melting point fell in the range of 54.3 to 55.5 °C.

`ClCC(CCl)(CCl)CCl` registered a melting point of 95 to 97 °C.

In the case of `NNC(=O)Nc1ccccc1`, the melting point was 124 to 128 °C.

In turn, `CCOC(=O)C(C)(C)C` showed a melting point of -90 to -89.5 °C.

In the case of `NCCO`, the melting point was 10 to 11 °C.

For `COc1ccc2nc(N)sc2c1`, the melting point was in the range of 163 to 166 °C.

In turn, `Ic1cccc(I)c1` came in with a melting point of 36 to 40.4 °C.

`Cc1ccc(N)cc1C` yielded a melting point of 50 to 51 °C.

For the molecule `CC(C)S`, the melting point was -131 to -130 °C.

As for `Cc1nc2ccccc2[nH]1`, the melting point worked out at 176 °C.

`CCCCS(=O)(=O)CCCC`: the melting point lay in the range of 44 to 45 °C.

On to `CCCNC(=O)NS(=O)(=O)c1ccc(Cl)cc1`, for which the melting point stood at 128 °C.

As to `COc1cc(CC(=O)O)ccc1O`, the melting point is 143 to 144 °C.

For the molecule `COC(=O)c1ccc(C(=O)OC)cc1`, the melting point lay in the range of 141 to 142 °C.

As to `CCCCCc1cc(O)c2c(c1)OC(C)(C)c1ccc(C)cc1-2`, the melting point was 76.5 to 77 °C.

As for `CCCCCCCCCCCCCCCCCCCCCCCCCCCCCC`, the melting point was in the range of 65.8 to 67 °C.

`Cc1ccc(N)nc1` came in with a melting point of 76 to 76.5 °C.

For the molecule `O=[N+]([O-])c1cc([N+](=O)[O-])c(F)cc1F`, the melting point lay within 73 to 74 °C.

With `CCc1cccc(CC)c1`, the melting point was -84 to -83.9 °C.

Molecule `C1=CC2CCC1C2` came in with a melting point of 45 to 46 °C.

On to `CCCCCCCCCCCCCC(=O)OC`, for which the melting point lay in the range of 18 to 19 °C.

For `Oc1ccc2[nH]ccc2c1`, the melting point lay in the range of 108 to 109 °C.

On to `O=C(O)c1cc(Cl)ccc1O`, for which the melting point lay within 171 to 174 °C.

As to `COc1cccc(OC)c1OC`, the melting point was in the range of 44 to 48.5 °C.

In turn, `COC1=CC(=O)C=C(OC)C1=O` showed a melting point of 253 to 256 °C.

Molecule `COCC(C)O` (stereo not given) registered a melting point of -100 to -95 °C.

In turn, `ClCCCBr` yielded a melting point of -59 to -58.9 °C.

The molecule `CCCCCCCCCCCCCCCC(=O)O` yielded a melting point of 61 to 62.5 °C.

Molecule `Oc1c(F)c(F)c(F)c(F)c1F` displayed a melting point of 32.8 to 35 °C.

Turning to `O=CO`, the melting point was 8 to 8.32 °C.

Turning to `O=C1CCc2ccccc21`, the melting point lay within 40 to 42 °C.

`O=C1CCCCCCCCCCC1`: the melting point was in the range of 60 to 61 °C.

Turning to `Clc1ccc2cc[nH]c2c1`, the melting point lay within 89 to 90 °C.

For `CCCN(CCC)CCC`, the melting point was -94 to -93 °C.

For `Cc1ccc(S)c(S)c1`, the melting point lay within 29 to 31 °C.

Consider `CC(C)(C)C(=O)CC#N`, for which the melting point is 68 to 71 °C.

Turning to `CC(C)(C)c1cc(C(=O)O)cc(C(C)(C)C)c1O`, the melting point is 208 °C.

Molecule `C[N+](=O)[O-]` gave a melting point of -29 to -28.5 °C.

Regarding `C1=CCCCCCC1`, the melting point is -16 to -12 °C.

With `C1COCCN1`, the melting point was -5 to -4.8 °C.

Molecule `CC(C(=O)O)(c1ccccc1)c1ccccc1` came in with a melting point of 173 to 176 °C.

`CC=O` came in with a melting point of -128 to -123 °C.

Take `CC1(C(=O)O)CCC(C(=O)O)C1(C)C` (stereo not given): the melting point lay within 187 to 189 °C.

`CC(=O)OCCc1ccccc1` returned a melting point of -31.1 to -31 °C.

The molecule `O=C(O)c1cccs1` gave a melting point of 128 to 130 °C.

In turn, `CCCC(N)=O` came in with a melting point of 115 to 116 °C.

Molecule `Brc1cc2ccccc2c2ccccc12` returned a melting point of 64 to 64.5 °C.

For `O=[N+]([O-])c1ccc(F)cc1O`, the melting point was in the range of 33 to 36 °C.

Molecule `O=C(O)c1ccc(-c2ccccc2)cc1` showed a melting point of 225 to 228 °C.

In the case of `CC1(C)CCCC1`, the melting point was -70 to -69.8 °C.

As to `CCCCC`, the melting point is -130 °C.

The molecule `CCCCCCCCCCC(=O)O` yielded a melting point of 28 to 28.6 °C.

With `CCC(C)(C)Cl`, the melting point is -74 to -73 °C.

For the molecule `N#CC(Cl)(Cl)Cl`, the melting point is -44 to -42 °C.

For `N#Cc1cc(Cl)cc(Cl)c1`, the melting point was in the range of 64 to 66 °C.

In the case of `Cc1ccc(Br)cc1`, the melting point was in the range of 25 to 28.5 °C.

`Nc1ccc(S(=O)(=O)c2ccc(N)cc2)cc1` registered a melting point of 176 to 177 °C.

`Fc1ccccc1I` registered a melting point of -42 to -41.5 °C.

Take `COC`: the melting point is -142 to -138 °C.

As for `Nc1ccccc1Br`, the melting point lay within 29 to 32 °C.

On to `CCCCCCCCI`, for which the melting point is -46 to -44 °C.

On to `CCCCCCOC=O`, for which the melting point is -63 to -62.6 °C.

In turn, `CCC(=O)O` came in with a melting point of -21.1 to -20.7 °C.

For `NCCc1c[nH]c2ccccc12`, the melting point was in the range of 114 to 118 °C.

The molecule `Cc1cccc(N)n1` showed a melting point of 41 to 43 °C.

`O=C(O)c1ccco1` had a melting point of 130 to 134 °C.

Turning to `Oc1ccc(Oc2ccccc2)cc1`, the melting point lay within 80 to 84 °C.

Consider `C=CCCCCCCCCCCCCC`, for which the melting point is -4 to -2.8 °C.

As for `Clc1ccccn1`, the melting point was -46.5 to -46 °C.

`Cc1cc(C(=O)O)ccc1N`: the melting point came to 170 °C.

Take `Cc1cc(C)cc(C(C)(C)C)c1`: the melting point is -22 to -18 °C.

With `CCCCS(=O)CCCC`, the melting point fell in the range of 32.6 to 33 °C.

`O=C(c1ccccc1)c1ccccc1C(F)(F)F`: the melting point was in the range of 60 to 61 °C.

`N#Cc1ccc(C=O)cc1` gave a melting point of 100 to 102 °C.

The molecule `Cc1ccc2ccccc2c1` came in with a melting point of 33 to 34.4 °C.

Consider `Clc1cc(Cl)c(Cl)c(Cl)c1Cl`, for which the melting point lay within 85 to 86 °C.

With `Nc1ccncc1N`, the melting point fell in the range of 216 to 220 °C.

`Clc1ccc(I)cc1` yielded a melting point of 54 to 57 °C.

As for `CC(Oc1cccc(Cl)c1)C(=O)O` (stereo not given), the melting point lay within 113 to 115 °C.

For the molecule `O=CNc1ccccc1`, the melting point fell in the range of 46 to 47 °C.

Consider `NCCC(=O)O`, for which the melting point was in the range of 196 to 200 °C.

Turning to `OC(c1ccc(Cl)cc1)(c1ccc(Cl)cc1)C(Cl)(Cl)Cl`, the melting point fell in the range of 77.5 to 78.5 °C.

In turn, `Nc1ccc(Cc2ccc(N)cc2)cc1` gave a melting point of 90 to 92.5 °C.

Molecule `Cc1cc2ccccc2cn1` displayed a melting point of 63 to 68 °C.

For the molecule `O=C(OCc1ccccc1)c1ccccc1C(=O)OCc1ccccc1`, the melting point lay in the range of 41 to 44 °C.

Regarding `O=S(Cl)Cl`, the melting point is -105 to -104 °C.

Consider `O=C(O)c1ccc(Cl)c(Cl)c1`, for which the melting point lay in the range of 207 to 208 °C.

Regarding `C=Cc1ccc(O)cc1`, the melting point lay in the range of 73 to 73.5 °C.

With `O=[N+]([O-])c1cc([N+](=O)[O-])c2ccccc2c1`, the melting point was 147 to 148 °C.

`COC(=O)c1ccc(Br)cc1`: the melting point was 79 to 81 °C.

In turn, `CCOC(=O)C(O)(c1ccc(Cl)cc1)c1ccc(Cl)cc1` displayed a melting point of 36 to 37 °C.

In turn, `CCOC(=O)c1ccc(OC)cc1` showed a melting point of 7 to 8 °C.

On to `CCc1cc(C)cc(C)c1`, for which the melting point is -84.3 to -84 °C.

With `Sc1nc2ccccc2s1`, the melting point is 179 to 181 °C.

`OC1C2CCC(C2)C1O` (stereo not given) displayed a melting point of 139 to 141 °C.

With `O=CN1CCOCC1`, the melting point fell in the range of 21 to 22 °C.

Regarding `Sc1ccccn1`, the melting point was 127 to 129 °C.

The melting point is the temperature, or range, at which the solid turns liquid.
